Patent publication US8598147B2, “Synergistic antimicrobial composition” (Dow Global Technologies LLC, priority 2009, dated 2013)

Columns and labels:
oilfield SRB consortium = experiment: Biocidal efficacy against anaerobic bacteria for a high temperature and sulfide-rich environment (dosage for 99.999% bacterial reduction); type: cell-based, sulfate reducing bacteria (SRB); conditions: 80° C., 7 days, daily challenge of SRB consortium and 10 ppm sulfide ion
Protocol: Inside an anaerobic chamber (BACTRON IV), biocides solutions were challenged with 10^4 to 10^5CFU/mL of an oilfield SRB consortium and 10 ppm sulfide ion (added in the form of sodium sulfide). The biocide solutions were then incubated at 80° C. under anaerobic condition for 7 days, with daily challenge of the SRB consortium (10^4 to 10^5CFU/mL) and sulfide ion (10 ppm). Then the biocidal efficacy was evaluated against the field SRB consortium at 2 hours and 7 days. The biocidal efficacy was determined by the biocide dosage required for 99.999% bacterial reduction. Synergy Index was then calculated. Table 2 summarizes the efficacy of each biocide and their blends, and the Synergy Index of each combination.

[1] = tested on: oil field isolated anaerobic consortium, mainly SRB; experiment: Biocidal efficacy (MBC, complete bacteria kill) of THPS, CTAC and THPS/CTAC combination against sulfate reducing bacteria; type: cell-based, sulfate reducing bacteria (SRB)
Protocol: Inside an anaerobic chamber (BACTRON anaerobic chamber), a deaerated sterile salt solution (3.1183 g of NaCl, 1.3082 mg of NaHCO3, 47.70 mg of KCl, 72.00 mg of CaCl2, 54.49 mg of MgSO4, 172.28 mg of Na2SO4, 43.92 mg of Na2CO3 in 1 L water) was contaminated with an oil field isolated anaerobic consortium, mainly SRB, at final bacterial concentrations of 10^6 to 10^7 CFU/mL.

| Compound | Concentration (active ppm) required for 99.999% bacterial reduction CTAC (oilfield SRB consortium; CTAC concentration (alone or within the blend)) [active ppm] | MBC (active ppm) CTAC ([1]; CTAC concentration (alone or within the blend) for complete bacteria kill, 40° C., 24 hour, anaerobic, 10^6 to 10^7 CFU/mL) [active ppm] | Concentration (active ppm) required for 99.999% bacterial reduction THPS (oilfield SRB consortium; THPS concentration (alone or within the blend)) [active ppm] | MBC (active ppm) THPS [1] [active ppm] |
| --- | --- | --- | --- | --- |
| Cl/C=C\C[N+]12CN3CN(CN(C3)C1)C2.[Cl-] [CTAC, cis-1-(3-chloroallyl)-3,5,7-triaza-1-azoniaadamantane chloride] | 180 | 31.1 | – | – |
| tetrakis(hydroxymethyl)phosphonium sulfate [THPS] | – | – | 45.0 | 4.1 |
